Measurements taken from US20220259202A1, “1-(4-(AMINOMETHYL)BENZYL)-2-BUTYL-2H-PYRAZOLO[3,4-C]QUINOLIN-4-AMINE DERIVATIVES AND RELATED COMPOUNDS AS TOLL-LIKE RECEPTOR (TLR) 7/8 AGONISTS, AS WELL AS ANTIBODY DRUG CONJUGATES THEREOF FOR USE IN CANCER THERAPY AND DIAGNOSIS” (SUTRO BIOPHARMA, INC., priority 2019, published 2022).

Experiments:
Format in all cases: cell-based
[1] = tested on: human and mouse TLRs; experiment: HEK293 SEAP reporter panel of human and mouse TLRs, specificity; details: 16 hrs
Excerpt: In this example, the activity of the Compound 1 to stimulate different human and mouse TLR pathways was investigated on HEK293 cells transfected with inducible SEAP (secreted embryonic alkaline phosphatase) reporter genes and also expressing different human TLRs (TLR2, TLR3, TLR4, TLR5, TLR7, TLR8, TLRS) or mouse TLRs (TLR2, TLR3, TLR4, TLR5, TLR7, TLR8, TLR13). Compound A
HEK293 reporter cell lines were purchased from Invivogen and cell lines were maintained in manufacture recommended culture medium with required supplemental antibiotics. On the day of assay, the cells were harvested with Accutase and counted by the Vi-CELL Cell Viability Analyzers. Cells were re-suspended in HEK blue detection medium and a total of 10000 cells were seeded in each well of a 384-well flat bottom plate. […] Assay plates were cultured at 37° C. in a CO2 incubator for 16 hrs. HEK-Blue™ Detection medium changes to a purple/blue color in the presence of secreted SEAP, which can be detected by spectrophotometry at 620-655 nm. Data was fitted with non-linear regression analysis, using a log(inhibitor) vs. response-variable slope, 3-parameter fit with GraphPad Prism.

[2] = tested on: mouse splenocytes; experiment: Compound-induced cytokine release (ELISA); details: IL-6, MCP-1, TNFα and IP-10 (FIG. 6A-6D); 48 hr
Description: (§1) This example evaluates the ability of Compound 1 to induce cytokine release in human PBMCs, cyno PBMCs and mouse splenocytes. Compound A and resiquimod, above, were used as controls in the assays.
(§2) Human and cyno PBMCs, mouse splenocytes were isolated as described in previous example. On the day of the assay, 300k of PBMC or splenocytes in 50 μL of culture medium were seeded in 96-well cell culture plates. 50 μL of the test articles (formulated at 2× of starting concentration) were then added into the well. The cell mixtures were co-cultured in the presence of test articles and 10 μg/mL LPS-RS for 24 hrs (human PBMCs) or 48 hr (cyno PBMCs and mouse splenocytes). Released cytokines in cell culture medium were measured by ELISA.

[3] = tested on: human PBMCs; experiment: Compound-induced cytokine release (ELISA); details: IL-6, MCP-1, IL1Ra (FIG. 4A-4C); 24 hrs
Description: as §1, §2

[4] = biological target: T1, human TLR8 (Homo sapiens, UniProt Q9NR97); experiment: HEK293 SEAP reporter assay, human TLR8 (Biological Example 1); details: HEK293-humanTLR8 reporter cells, 4 hrs; read-out: hTLR8 EC50
T1 construct: host or cells: HEK293
T1 sequence (Q9NR97 27-1041): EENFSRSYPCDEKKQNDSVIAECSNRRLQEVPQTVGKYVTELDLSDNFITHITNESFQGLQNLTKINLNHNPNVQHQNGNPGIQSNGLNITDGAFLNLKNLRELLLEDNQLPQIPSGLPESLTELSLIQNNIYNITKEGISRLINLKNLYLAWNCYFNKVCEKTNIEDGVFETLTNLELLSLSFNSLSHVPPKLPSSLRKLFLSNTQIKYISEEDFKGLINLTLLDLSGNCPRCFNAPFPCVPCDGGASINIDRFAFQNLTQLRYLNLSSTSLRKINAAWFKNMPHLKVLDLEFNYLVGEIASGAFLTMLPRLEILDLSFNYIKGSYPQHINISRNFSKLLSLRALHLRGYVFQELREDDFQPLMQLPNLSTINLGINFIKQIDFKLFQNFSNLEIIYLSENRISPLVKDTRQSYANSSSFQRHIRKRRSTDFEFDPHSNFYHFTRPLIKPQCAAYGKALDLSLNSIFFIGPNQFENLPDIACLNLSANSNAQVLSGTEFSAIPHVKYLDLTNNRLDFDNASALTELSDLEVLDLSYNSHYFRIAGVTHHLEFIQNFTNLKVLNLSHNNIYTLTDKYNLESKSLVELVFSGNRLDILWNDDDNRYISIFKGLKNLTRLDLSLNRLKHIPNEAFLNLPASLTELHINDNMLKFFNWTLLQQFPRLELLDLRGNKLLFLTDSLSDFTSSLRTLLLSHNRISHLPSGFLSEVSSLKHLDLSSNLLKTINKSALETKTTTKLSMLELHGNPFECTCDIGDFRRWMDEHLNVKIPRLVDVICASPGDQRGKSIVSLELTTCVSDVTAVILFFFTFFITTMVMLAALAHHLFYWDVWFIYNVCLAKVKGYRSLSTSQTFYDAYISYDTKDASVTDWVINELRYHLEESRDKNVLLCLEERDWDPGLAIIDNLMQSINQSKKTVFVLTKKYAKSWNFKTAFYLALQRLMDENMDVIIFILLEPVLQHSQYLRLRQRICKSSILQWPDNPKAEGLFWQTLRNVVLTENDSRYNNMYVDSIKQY
Description: In this example, the activity of the TLR7 agonists to activate human TLR7, hTLR7 (or human TLR8, hTLR8, or mouse TLR7, mTLR7) pathway was evaluated on HEK293 reporter cells transfected with human TLR7 (or mouse TLR7 or human TLR8) and an inducible SEAP (secreted embryonic alkaline phosphatase) reporter gene. The SEAP reporter gene is placed under the control of the IFN-β minimal promoter fused to five NF-κB and AP-1-binding sites. Stimulation with a TLR7 agonist activates NF-KB and AP-1 which induces the production of SEAP. Levels of SEAP was determined with HEK-Blue Detection medium.
HEK293-humanTLR7, HEK293-mouseTLR7 and HEK293-humanTLR8 reporter cell lines were purchased from Invivogen and cell lines were maintained in manufacture recommended culture medium with required supplemental antibiotics. On the day of assay, the cells were harvested with Accutase and counted by the Vi-CELL Cell Viability Analyzers. Cells were re-suspended in HEK blue detection medium and a total of 10000 cells were seeded in each well of a 384-well flat bottom plate. Serial dilutions of TLR7 agonists free drugs (1:3 serial dilution starting from 5 μM) was added into treatment wells. Assay plates were cultured at 37° C. in a CO2 incubator for […]. HEK-Blue™ Detection medium changes to a purple/blue color in the presence of secreted SEAP, which can be detected by spectrophotometry at 620-655 nm. […]

`CCCCn1nc2c(N)nc3ccccc3c2c1Cc1ccc(CN)cc1` [Compound 1, 1-(4-(aminomethyl)benzyl)-2-butyl-2H-pyrazolo[3,4-c]quinolin-4-amine] was tested, and the “specificity among human and mouse TLRs” value [1] was “very specific to human and mouse TLR7 and human TLR8”, the “cytokine release from mouse splenocytes” value [2] was “stimulated strong” and the “cytokine release from human PBMCs” value [3] was “stimulated strong”. For the same compound, the EC50 [4] was 0.82 µM.
